Reference: patent US20250255293A1, “TISSUE DECONTAMINATION AND PRESERVATION SYSTEM” (priority 2024, published 2025)
“And” between values parts separate entries of the source, which are not always exact repeats. Equal entries are not always repeated.

What was measured:
cells in bone = details: decontamination with 2% chlorhexidine gluconate; cited from earlier work
[1] = test system: bacteria (quantitative bacterial cultures); assay: Quantitative bacterial cultures, in vivo reimplantation of decontaminated fracture fragment (Example 4); parameters: species or system canine; details: individual dogs
Description: (§1) A grade 3 open femoral bicondylar fracture was created in 3 canines. A lateral parapatellar approach was used, the fragment was cultured and retrieved. The fragment was irrigated, treated with 0.002% chlorhexidine for 20 minutes, irrigated, and stored in MOPS® for 7 days, after which the fragment was reimplanted, and both condyles were repaired with 3.5 mm cannulated lag screws. After 3 months, quantitative bacterial cultures (CFU/g; Table 2) and functional outcomes (Table 3) were measured.

[2] = test system: chondrocytes of osteoarticular fracture fragments; assay: Viable chondrocyte density / % VCD, live-dead assay (Example 5); type: cell-based; details: for % VCD (percentage of mean VCD of healthy day-0 samples): 20 min immersion (10% povidone-iodine or 0.002% chlorhexidine gluconate)
Description: Skeletally mature purpose-bred research hounds (n=16) were humanely euthanized for purposes unrelated to the present study. Immediately following euthanasia, each dog was positioned in sternal recumbency with one forelimb extended and secured in a custom-made positioning apparatus. Fur was not clipped and no aseptic preparation or decontamination techniques were performed. Using a validated technique, a penetrating captive bolt stunner pistol (CASH Special, FRONTMATEC, Birmingham, United Kingdom) with a 1.25 grain cartridge was centered on the cranial (anterior) aspect of the distal humerus, immediately proximal to the elbow joint and with firm pressure against the secured elbow, the pistol was discharged, creating type 3 open distal humeral fractures. After the fractures were induced and radiographs obtained, the skin and soft tissues were aseptically removed. For each elbow (n=32), osteoarticular tissues were obtained from the distal humerus, proximal radius and proximal ulna such that 96 contaminated, devascularized, osteoarticular fracture fragments were randomly allocated to undergo treatment using one of the following protocols for comparison: 1)⋅Betadine (n=42): bulb irrigation using 1 L of 0.9% saline, followed by immersion in 10% povidone-iodine solution for 20 min, followed by bulb irrigation using 1 L of 0.9% saline; 2)⋅Chlorhexidine (n=42): bulb irrigation using 1 L of 0.9% saline, followed by immersion in 0.002% chlorhexidine gluconate solution immersion for 20 min, followed by bulb irrigation using 1 L of 0.9% saline; and 3)⋅Injured Control (n=12): no decontamination treatment. Each fragment was then immediately placed in 200 ml of Missouri Osteochondral Preservation System (MOPS®) solution in individual sterile closed containers, transported to the on-site laboratory and placed in a dedicated storage cabinet in standard room temperature and humidity conditions for 7 or 14 days.
Viable Chondrocyte Density. At days 7 (n=21) or 14 (n=21) of storage, osteoarticular tissues were collected and processed for assessment of viable chondrocyte density (VCD). VCD was assessed using a live-dead assay involving calcein AM (live stain) and ethidium homodimer (dead stain). Briefly, tissues were sagittally sectioned using a Buchler Isomet low speed saw (Lake Bluff, IL, USA) to produce representative 1 mm-thick sections from each. Sections were placed in 6-well plates containing calcein AM (1 μg/ml) solution and ethidium homodimer (1 μM) in Phosphate Buffered Saline (PBS). The plates were incubated for 30 minutes at 37° C. After incubation, the stain was removed, the samples rinsed in PBS and tissues were mounted to the bottom of the plate using a 4% agarose solution. Fluorescent microscopy was used to obtain two images per section, which were analyzed to quantify tissue viability based on VCD. The VCD was determined by counting the number of viable cells in each image and dividing this by the area of the tissue in the image (#of viable cells/area of cartilage tissue mm^2). The percentage of viable chondrocyte density (% VCD) for each fracture fragment was calculated based on the mean VCD of healthy day-0 samples using the formula: (fractured VCD/control VCD)×100.
Statistical Analysis. All data were analyzed using statistical software R Studio, version 4.3.1 (Posit Software, Boston, MA, USA). Descriptive statistics for VCD, % VCD and CFU were calculated to report means, standard deviations, ranges and percentages. […]

[3] = test system: canines with grade 3 open femoral bicondylar fracture; assay: Functional outcomes after reimplantation of decontaminated fracture fragment (Example 4); type: in vivo, canine
Description: as §1

[4] = 3 months after reimplantation of fragment treated with 0.002% chlorhexidine and stored in MOPS 7 days

[H]/N=C(\N/C(=N/[H])NCCCCCCNC(=N)NC(=N)Nc1ccc(Cl)cc1)Nc1ccc(Cl)cc1 [Chlorhexidine, chlorhexidine gluconate]
cell viability in bone (cells in bone): complete loss of cell viability | quantitative bacterial culture, Endpoint, Fracture Fragment ([1]; 3 months after reimplantation): 0 CFU/g | quantitative bacterial culture, Endpoint, Synovium ([1]; 3 months after reimplantation): 0 CFU/g | quantitative bacterial culture, Reimplantation, MOPS Media ([1]; after 0.002% chlorhexidine 20 min and 7 days storage in MOPS): 0 CFU/g | quantitative bacterial culture, Initial Trauma, Fracture Fragment ([1]; baseline, before 0.002% chlorhexidine treatment): 355 CFU/g and 0 CFU/g and 41 CFU/g | quantitative bacterial culture, Initial Trauma, Synovium ([1]; baseline, before treatment): 0 CFU/g (2×) and 119 CFU/g | maintenance of minimum essential chondrocyte viability (in words) ([2]; 0.002% chlorhexidine immersion 20 min, shelf-stable storage in MOPS): maintaining minimum essential chondrocyte viability for up to 14 days | % VCD (percentage of mean VCD of healthy day-0 samples) ([2]; Day 7 of MOPS storage): 75.7 ± 24.2% | % VCD (percentage of mean VCD of healthy day-0 samples) ([2]; Day 14 of MOPS storage): 70.1 ± 24.1% | % VCD compared with other groups (in words) ([2]; days 7 and 14): significantly (p<0.001) higher than for the Betadine and Injured Control groups | mean % VCD versus minimum essential threshold ([2]; days 7 and 14 of MOPS storage): > 70% | Function (VAS) Post [3, 4]: 9 and 8.8 and 9.3 | ROM Post [3, 4]: 101 degrees and 97 degrees and 104 degrees | Pain (VAS) Post ([3]; Post, individual dogs): 0 | Pain (VAS) Pre ([3]; Pre, individual dogs): 1.2 and 1.9 and 0.6 | Function (VAS) Pre ([3]; baseline, individual dogs): 10 | ROM Pre ([3]; baseline, individual dogs): 108 degrees and 107 degrees and 109 degrees
